# What was measured:
# Assay type in all cases: in vivo
# rice (Oryza sativa) = assay: Test B flooded paddy test, visual rating; conditions: Flood, 250 g ai/ha, applied to paddy water, rated after 13 to 15 d
# Procedure, shortened: (§1)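 Ratings use a 0-100 visual scale, where 100 is complete control, and compare treated plants with controls after 13 to 15 d of greenhouse growth. Compound went straight into paddy water kept 3 cm over the soil surface, applied to seedlings at the 2-leaf stage.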
# [1] = test system: ducksalad (Heteranthera limosa); assay: Test B flooded paddy test, visual rating; conditions: Flood, 250 g ai/ha, applied to paddy water, rated after 13 to 15 d
# Procedure, shortened: as §1
# [2] = test system: barnyardgrass (Echinochloa crus-galli); assay: Test B flooded paddy test, visual rating; conditions: Flood, 250 g ai/ha, applied to paddy water, rated after 13 to 15 d
# Procedure, shortened: as §1
# [3] = test system: sedge, umbrella (small-flower umbrella sedge, Cyperus difformis); assay: Test B flooded paddy test, visual rating; conditions: Flood, 250 g ai/ha, applied to paddy water, rated after 13 to 15 d
# Procedure, shortened: as §1
# [4] = test system: ragweed (common ragweed, Ambrosia elatior); assay: Test A preemergence, directed soil spray, visual injury rating; conditions: 0 is no effect, 100 is complete control
# Procedure, shortened: (§2)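 Injury ratings, 0 (no effect) to 100 (complete control), were scored visually versus untreated plants roughly 10 d after treatment under greenhouse conditions. Treatments used surfactant-containing solvent formulations, sprayed onto soil preemergence or onto one- to two-leaf seedlings (2-10 cm) postemergence, grown in a loam-sand mix.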
# [5] = test system: foxtail, giant (giant foxtail, Setaria faberii); assay: as above; conditions: 0 is no effect, 100 is complete control
# Procedure, shortened: as §2
# [6] = test system: pigweed (Amaranthus retroflexus); assay: as above; conditions: 0 is no effect, 100 is complete control
# Procedure, shortened: as §2
# kochia (Kochia scoparia) [7] = assay: as above; conditions: 0 is no effect, 100 is complete control
# Procedure, shortened: as §2
# [8] = test system: barnyardgrass (Echinochloa crus-galli); assay: as above; conditions: 0 is no effect, 100 is complete control
# Procedure, shortened: as §2
# [9] = test system: ryegrass, It. (Italian ryegrass, Lolium multiflorum); assay: as above; conditions: 0 is no effect, 100 is complete control
# Procedure, shortened: as §2
# [10] = test system: wheat (Triticum aestivum); assay: Test A postemergence application, visual injury rating; conditions: 0 to 100 scale, 0 no effect, 100 complete control
# Procedure, shortened: as §2
# [11] = test system: ragweed (common ragweed, Ambrosia elatior); assay: as above; conditions: 0 to 100 scale, 0 no effect, 100 complete control
# Procedure, shortened: as §2
# [12] = test system: blackgrass (Alopecurus myosuroides); assay: as above; conditions: 0 to 100 scale, 0 no effect, 100 complete control
# Procedure, shortened: as §2
# [13] = test system: foxtail, giant (giant foxtail, Setaria faberii); assay: as above; conditions: 0 to 100 scale, 0 no effect, 100 complete control
# Procedure, shortened: as §2
# corn (Zea mays) = assay: as above; conditions: 0 to 100 scale, 0 no effect, 100 complete control
# Procedure, shortened: as §2
# [14] = test system: pigweed (Amaranthus retroflexus); assay: as above; conditions: 0 to 100 scale, 0 no effect, 100 complete control
# Procedure, shortened: as §2
# [15] = test system: galium (catchweed bedstraw, Galium aparine); assay: as above; conditions: 0 to 100 scale, 0 no effect, 100 complete control
# Procedure, shortened: as §2
# kochia (Kochia scoparia) [16] = assay: as above; conditions: 0 to 100 scale, 0 no effect, 100 complete control
# Procedure, shortened: as §2
# [17] = test system: barnyardgrass (Echinochloa crus-galli); assay: as above; conditions: 0 to 100 scale, 0 no effect, 100 complete control
# Procedure, shortened: as §2
# [18] = test system: ryegrass, It. (Italian ryegrass, Lolium multiflorum); assay: as above; conditions: 0 to 100 scale, 0 no effect, 100 complete control
# Procedure, shortened: as §2
Structure (SMILES),"Rice plant response rating (0 to 100 scale, 0 is no effect, 100 is complete control) (rice (Oryza sativa))","Ducksalad plant response rating (0 to 100 scale, 0 is no effect, 100 is complete control) [1]","Barnyardgrass plant response rating (0 to 100 scale, 0 is no effect, 100 is complete control) [2]","Sedge, Umbrella plant response rating (0 to 100 scale, 0 is no effect, 100 is complete control) [3]","Plant response rating (0 to 100 scale), Ragweed ([4]; 125 g ai/ha)","Plant response rating (0 to 100 scale), Foxtail, Giant ([5]; 125 g ai/ha)","Plant response rating (0 to 100 scale), Pigweed ([6]; 125 g ai/ha)","Plant response rating (0 to 100 scale), Kochia (kochia (Kochia scoparia) [7]; 125 g ai/ha)","Plant response rating (0 to 100 scale), Barnyardgrass ([8]; 125 g ai/ha)","Plant response rating (0 to 100 scale), Ryegrass, It. ([9]; 125 g ai/ha)",Wheat plant response rating ([10]; 125 g ai/ha),Ragweed plant response rating ([11]; 125 g ai/ha),Blackgrass plant response rating ([12]; 125 g ai/ha),"Foxtail, Giant plant response rating ([13]; 125 g ai/ha)",Corn plant response rating (corn (Zea mays); 125 g ai/ha),Pigweed plant response rating ([14]; 125 g ai/ha),Galium plant response rating ([15]; 125 g ai/ha),Kochia plant response rating (kochia (Kochia scoparia) [16]; 125 g ai/ha),Barnyardgrass plant response rating ([17]; 125 g ai/ha),"Ryegrass, It. plant response rating ([18]; 125 g ai/ha)",further results
CC(=O)Oc1c(C)nn(C)c(=O)c1-c1cncc2ccccc12 [Compound 8],0,0,0,0,0,0,20,0,0,0,0,0,0,0,0,70,10,30,0,0,"Plant response rating (0 to 100 scale), Ragweed ([4]; 500 g ai/ha): 0; Plant response rating (0 to 100 scale), Foxtail, Giant ([5]; 500 g ai/ha): 20; Plant response rating (0 to 100 scale), Pigweed ([6]; 500 g ai/ha): 70; Plant response rating (0 to 100 scale), Kochia (kochia (Kochia scoparia) [7]; 500 g ai/ha): 0; Plant response rating (0 to 100 scale), Barnyardgrass ([8]; 500 g ai/ha): 0; Plant response rating (0 to 100 scale), Ryegrass, It. ([9]; 500 g ai/ha): 30; Wheat plant response rating ([10]; 500 g ai/ha): 0; Ragweed plant response rating ([11]; 500 g ai/ha): 0; Blackgrass plant response rating ([12]; 500 g ai/ha): 0; Foxtail, Giant plant response rating ([13]; 500 g ai/ha): 20; Corn plant response rating (corn (Zea mays); 500 g ai/ha): 0; Pigweed plant response rating ([14]; 500 g ai/ha): 80; Galium plant response rating ([15]; 500 g ai/ha): 80; Kochia plant response rating (kochia (Kochia scoparia) [16]; 500 g ai/ha): 80; Barnyardgrass plant response rating ([17]; 500 g ai/ha): 20; Ryegrass, It. plant response rating ([18]; 500 g ai/ha): 30"
CCC(=O)Oc1c(C)nn(C)c(=O)c1-c1ccc(Cl)c2cc(C)oc12 [Compound 41],0,20,20,75,70,80,90,0,70,100,0,80,50,60,20,70,100,0,50,100,"Plant response rating (0 to 100 scale), Ragweed ([4]; 31 g ai/ha): 0; Plant response rating (0 to 100 scale), Foxtail, Giant ([5]; 31 g ai/ha): 20; Plant response rating (0 to 100 scale), Pigweed ([6]; 31 g ai/ha): 0; Plant response rating (0 to 100 scale), Kochia (kochia (Kochia scoparia) [7]; 31 g ai/ha): 0; Plant response rating (0 to 100 scale), Barnyardgrass ([8]; 31 g ai/ha): 0; Plant response rating (0 to 100 scale), Ryegrass, It. ([9]; 31 g ai/ha): 90; Wheat plant response rating ([10]; 31 g ai/ha): 0; Ragweed plant response rating ([11]; 31 g ai/ha): 80; Blackgrass plant response rating ([12]; 31 g ai/ha): 20; Foxtail, Giant plant response rating ([13]; 31 g ai/ha): 20; Corn plant response rating (corn (Zea mays); 31 g ai/ha): 0; Pigweed plant response rating ([14]; 31 g ai/ha): 40; Galium plant response rating ([15]; 31 g ai/ha): 90; Kochia plant response rating (kochia (Kochia scoparia) [16]; 31 g ai/ha): 0; Barnyardgrass plant response rating ([17]; 31 g ai/ha): 20; Ryegrass, It. plant response rating ([18]; 31 g ai/ha): 90"
Cc1cc2c(-c3c(O)c(C)nn(C)c3=O)ccc(Cl)c2o1 [Compound 45],0,30,0,50,10,0,50,0,0,30,0,0,0,0,0,10,70,0,0,60,"Plant response rating (0 to 100 scale), Ragweed ([4]; 31 g ai/ha): 0; Plant response rating (0 to 100 scale), Foxtail, Giant ([5]; 31 g ai/ha): 0; Plant response rating (0 to 100 scale), Pigweed ([6]; 31 g ai/ha): 0; Plant response rating (0 to 100 scale), Kochia (kochia (Kochia scoparia) [7]; 31 g ai/ha): 0; Plant response rating (0 to 100 scale), Barnyardgrass ([8]; 31 g ai/ha): 0; Plant response rating (0 to 100 scale), Ryegrass, It. ([9]; 31 g ai/ha): 0; Wheat plant response rating ([10]; 31 g ai/ha): 0; Ragweed plant response rating ([11]; 31 g ai/ha): 0; Blackgrass plant response rating ([12]; 31 g ai/ha): 0; Foxtail, Giant plant response rating ([13]; 31 g ai/ha): 0; Corn plant response rating (corn (Zea mays); 31 g ai/ha): 0; Pigweed plant response rating ([14]; 31 g ai/ha): 0; Galium plant response rating ([15]; 31 g ai/ha): 20; Kochia plant response rating (kochia (Kochia scoparia) [16]; 31 g ai/ha): 0; Barnyardgrass plant response rating ([17]; 31 g ai/ha): 0; Ryegrass, It. plant response rating ([18]; 31 g ai/ha): 20"
COC(=O)Oc1c(C)nn(C)c(=O)c1-c1ccc(Cl)c2cc(C)oc12 [Compound 40],0,0,0,0,50,20,60,0,20,90,0,40,20,20,10,40,100,0,20,70,"Plant response rating (0 to 100 scale), Ragweed ([4]; 31 g ai/ha): 0; Plant response rating (0 to 100 scale), Foxtail, Giant ([5]; 31 g ai/ha): 0; Plant response rating (0 to 100 scale), Pigweed ([6]; 31 g ai/ha): 0; Plant response rating (0 to 100 scale), Kochia (kochia (Kochia scoparia) [7]; 31 g ai/ha): 0; Plant response rating (0 to 100 scale), Barnyardgrass ([8]; 31 g ai/ha): 0; Plant response rating (0 to 100 scale), Ryegrass, It. ([9]; 31 g ai/ha): 80; Wheat plant response rating ([10]; 31 g ai/ha): 0; Ragweed plant response rating ([11]; 31 g ai/ha): 20; Blackgrass plant response rating ([12]; 31 g ai/ha): 0; Foxtail, Giant plant response rating ([13]; 31 g ai/ha): 10; Corn plant response rating (corn (Zea mays); 31 g ai/ha): 0; Pigweed plant response rating ([14]; 31 g ai/ha): 20; Galium plant response rating ([15]; 31 g ai/ha): 90; Kochia plant response rating (kochia (Kochia scoparia) [16]; 31 g ai/ha): 0; Barnyardgrass plant response rating ([17]; 31 g ai/ha): 10; Ryegrass, It. plant response rating ([18]; 31 g ai/ha): 40"

# Source: patent US10750743B2, “Pyridazinone herbicides” (E.I. DU PONT DE NEMOURS AND COMPANY, priority 2015, dated 2020)
